According to ChEMBL document CHEMBL1145505, “Bisphosphonates target multiple sites in both cis- and trans-prenyltransferases” (Proc Natl Acad Sci U S A, 2007):
Where “and” joins values, the source holds several entries; their conditions need not be identical. Identical values can stand only once.

Tests used:
[1] = Inhibition of Escherichia coli UPPS
[2] = Inhibition of Sulfolobus solfataricus HPPS; set-up: species or system Saccharolobus solfataricus
[3] = Inhibition of Escherichia coli OPPS

| IC50 [1] | IC50 [2] | IC50 [3] | Compound |
| --- | --- | --- | --- |
| 48 µM |  |  | O=P([O-])(O)C(O)(C[n+]1cccc(-c2ccccc2)c1)P(=O)(O)O (configuration not stated) |
| 490 µM |  |  | O=P([O-])(O)C(O)(C[n+]1cccc(F)c1)P(=O)(O)O (configuration not stated) |
| 3.1 µM |  |  | O=P(O)(O)C(O)(CCc1cccc(-c2ccccc2-c2ccccc2)c1)P(=O)(O)O |
|  | 0.46 µM | 0.43 µM | O=P(O)(O)C(O)(Cc1cccc(-c2cccc(-c3ccccc3)c2)c1)P(=O)(O)O |
| 10 µM |  |  | O=P(O)(O)C(O)(CCc1cccc(-c2ccc(-c3ccccc3)cc2)c1)P(=O)(O)O |
| 1.8 µM |  |  | O=P(O)(O)C(O)(c1cccc(-c2cccc(-c3ccccc3)c2)c1)P(=O)(O)O |
| 120 µM |  |  | O=P([O-])(O)C(C[n+]1cccc(-c2ccccc2-c2ccccc2)c1)P(=O)(O)O (configuration not stated) |
|  | 0.42 µM | 5.4 µM | O=P(O)(O)C(O)(Cc1cccc(-c2cccc(NS(=O)(=O)c3ccc4ccccc4c3)c2)c1)P(=O)(O)O |
| 87 µM |  |  | O=P(O)(O)C1(P(=O)(O)O)CC(c2ccc(Cl)c(Cl)c2)=NO1 |
| 2 µM |  |  | O=P(O)(O)C(O)(Cc1ccc(-c2ccc(-c3ccccc3)cc2)cc1)P(=O)(O)O |
| 12 µM |  |  | O=P(O)(O)C(O)(CCc1ccc(-c2cccc3c2oc2ccccc23)cc1)P(=O)(O)O |
|  | 360 µM | 0.075 µM | O=P(O)(O)C(O)(COc1cccc(-c2cccc(-c3ccccc3)c2)c1)P(=O)(O)O |
|  | 2.7 µM | 870 µM | O=P(O)(O)C(O)(Cc1cccc(-c2ccc(-c3ccccc3)cc2)c1)P(=O)(O)O |
| 6.8 µM |  |  | O=P(O)(O)C(O)(Cc1cccc(-c2ccccc2)c1)P(=O)(O)O |
| 5.5 µM |  |  | O=P(O)(O)C(O)(CCc1cccc(-c2cccc(-c3ccccc3)c2)c1)P(=O)(O)O |
| 1 µM |  |  | O=P(O)(O)C(O)(Cc1ccc(-c2cccc(-c3ccccc3)c2)cc1)P(=O)(O)O |
| 28 µM |  |  | O=P([O-])(O)C(C[n+]1ccc(-c2ccc(-c3ccccc3)cc2)cc1)P(=O)(O)O (configuration not stated) |
| 35 µM |  |  | O=P([O-])(O)C(C[n+]1cccc(-c2ccc(-c3ccccc3)cc2)c1)P(=O)(O)O (configuration not stated) |
| 89 µM |  |  | CC(C)=CCC/C(C)=C/Cc1ccc[n+](CC(P(=O)([O-])O)P(=O)(O)O)c1 (configuration not stated) |
| 68 µM and 21 µM |  |  | O=P([O-])(O)C(C[n+]1cccc(-c2cccc(-c3ccccc3)c2)c1)P(=O)(O)O (configuration not stated) |
| 13 µM |  |  | O=P([O-])(O)C(O)(C[n+]1ccc(-c2cccc3c2oc2ccccc23)cc1)P(=O)(O)O (configuration not stated) |
| 34 µM |  |  | O=P([O-])(O)C(C[n+]1cccc(-c2cccc3c2oc2ccccc23)c1)P(=O)(O)O (configuration not stated) |
|  | 1.2 µM | 32 µM | O=P(O)(O)C(O)(Cc1cccc(-c2cccc3c2oc2ccccc23)c1)P(=O)(O)O |
| 200 µM |  |  | O=P(O)(O)C(O)(Cc1ccccc1)P(=O)(O)O |
| 69 µM |  |  | O=P(O)(O)C(CCCc1ccc(-c2ccccc2)cc1)P(=O)(O)O |
|  | 0.05 µM | 2.1 µM | O=P(O)(O)C(O)(Cc1cnc2ccccn12)P(=O)(O)O [MINODRONIC ACID] |
| 660 µM | 0.09 µM | 0.038 µM | O=P(O)(O)C(O)(Cc1cccnc1)P(=O)(O)O [RISEDRONIC ACID] |

| Compound | IC50 [1] | IC50 [2] | IC50 [3] |
| --- | --- | --- | --- |
| O=P(O)(O)C(O)(Cn1ccnc1)P(=O)(O)O [ZOLEDRONIC ACID] |  | 0.09 µM | 0.038 µM |
